Patent US9428507B2, “Compounds for the treatment of malaria” (The Broad Institute, Inc., priority 2013, dated 2016)

What follows are compounds tested on Dd2 strain of P. falciparum (assay: Activity against the Dd2 strain of P. falciparum (SYBR Green I, 72-h incubation)). Settings: Plasmodium falciparum, DD2, 72 h, read-out: EC^50 Dd2.
Format: cell-based
Experimental: The Dd2 strain of P. falciparum was cultured in complete medium (RPMI with L-glutamine, 4.3% heat-inactivated O-positive human serum, 2.08 mg/ml albumax, 0.013 mg/ml hypoxanthine, 1.17 mg/ml glucose, 0.18% NaHCO3, 0.031 M Hepes, 2.60 mM NaOH, and 0.043 mg/ml gentamicin) until the parasitemia reached 3-8%. Parasitemia was determined by checking at least 500 red blood cells from a Giemsa-stained blood smear. The Dd2 cultures along with tested O-positive red blood cells are centrifuged at room temperature at 2,000 rpm for 5 min using an Eppendorf centrifuge 581 OR with an A-4-81 rotor. The medium was aspirated off. For the compound screening, a parasite dilution at a 1% parasitemia and 1.0% hematocrit was created with screening medium (RPMI with L-glutamine, 4.16 mg/ml albumax II, 0.013 mg/ml hypoxanthine, 1.73 mg/ml glucose, 0.18% NaHCO3, 0.031M Hepes, 2.60 mM NaOH, and 0.043 mg/ml gentamicin). The suspension was gassed with 93% nitrogen, 4% carbon dioxide, and 3% oxygen and placed at 37° C. until needed. Using a liquid dispenser, 20 μl of screening medium was dispensed into 384-well, black, clear-bottom plates. With a PinTool, 100 nl of compounds dissolved in DMSO was transferred into the assay plates along with control compound (mefloquine). Next, 30 μl of the parasite suspension in screening medium was then dispensed into the assay plates such that the final parasitemia was 1%, and the final hematocrit was 1.0%. Final concentration of DMSO was 0.125%. Mefloquine at a final concentration of 20 μM and DMSO at a final concentration of 0.125% were used within the assay plates to serve as background and baseline controls, respectively. The assay plates were transferred to incubators (93% nitrogen, 4% carbon dioxide, and 3% oxygen during the 72-h incubation at 37° C.). Ten microliters of detection reagent consisting of 1 OX SYBR Green I (Invitrogen; supplied in 10,000× concentration) in lysis buffer (20 mM Tris-HCl, 5 mM EDTA, 0.16% Saponin wt/vol, 1.6% Triton X vol/vol) was dispensed into the assay plates. For optimal staining, the assay plates were left at room temperature for 24 h in the dark. The assay plates were read by using an Envision (PerkinElmer) reader, with 505 dichroic mirrors with 485-nm excitation and 530-nm emission settings, and the plate reads were from the bottom.

Structure (SMILES)	EC50
COc1ccc2c3c(n(C)c2c1)[C@@H](CO)N(Cc1ccccc1OC)CC31CCN(CC2CC2)CC1 [Compound 83, (S)-(1-(cyclopropylmethyl)-7′-methoxy-2′-(2-methoxybenzyl)-9'-methyl-1′,2′,3′,9′-tetrahydrospiro [piperidine-4,4′-pyrido[3,4-b]indol]-1′-yl) methanol]	0.522 µM
C=CCOC(=O)N1CC2(CCN(C(=O)Nc3ccccc3F)CC2)c2c([nH]c3cc(OC)ccc23)[C@@H]1CO [Compound 16, (R)-allyl 1-((2-fluorophenyl)carbamoyl)-1′-(hydroxymethyl)-7′-methoxy-3′,9′-dihydrospiro[piperidine-4,4′-pyrido[3,4-b]indole]-2′(1′H)-carboxylate]	2.41 µM
COc1ccc2c3c([nH]c2c1)[C@H](CO)N(C(=O)C(C)C)CC31CCN(C(=O)Nc2ccccc2F)CC1 [Compound 9]	2.91 µM
COc1ccc2c3c([nH]c2c1)[C@H](CO)N(C(C)=O)CC31CCN(C(=O)Nc2ccc(F)cc2)CC1 [Compound 8, (R)-2′-acetyl-N-(4-fluorophenyl)-1′-(hydroxymethyl)-7′ -methoxy-1′,2′,3′,9′-tetrahydrospiro[piperidine-4,4′-pyrido[3,4-b]indole]-1-carboxamide]	1.77 µM
COc1ccc2c3c([nH]c2c1)[C@H](CO)N(C(=O)CN(C)C)CC31CCN(CC2CCCCC2)CC1 [Compound 89, (R)-1-(1-(cyclohexylmethyl)-1′-(hydroxymethyl)-7′-methoxyspiro [piperidine-4,4′-pyrido[3,4-b]indol]-2′(1′ H,3′H,9′H)-yl)-2-(dimethylamino)ethanone]	0.432 µM
COc1ccc2c3c(n(C)c2c1)[C@H](CO)NCC31CCN(CC2CCCC2)CC1 [Compound 91, (R)-(1-(cyclopentylmethyl)-7′-methoxy-9′-methyl-1′,2′,3′,9′-tetrahydrospiro[piperidine-4,4′-pyrido[3,4-b]indol]-1′-yl)methanol]	0.481 µM

Second part, the compound after the results:

EC50	Structure (SMILES)
0.353 to 0.551 µM	COc1ccc2c3c([nH]c2c1)[C@H](CO)N(C(C)=O)CC31CCN(C(=O)Nc2ccc(F)cc2F)CC1 [Compound 54, (R)-2′-acetyl-N-(2,4-difluorophenyl)-1′-(hydroxymethyl)-7′-methoxy-1′,2′,3′,9′-tetrahydrospiro[piperidine-4,4′-pyrido[3,4-b]indole]-1-carboxamide]
1.33 µM	COc1ccc2c3c([nH]c2c1)[C@H](CO)NCC31CCN(C(=O)Nc2ccccc2F)CC1 [Compound 26, (R)-N-(2-fluorophenyl)-1′-(hydroxymethyl)-7′-methoxy-1′,2′,3′,9′-tetrahydrospiro [piperidine-4,4′-pyrido[3,4-b]indole]-1-carboxamide]
1.44 to 1.6 µM	COc1ccc2c3c([nH]c2c1)[C@H](CO)N(C(C)=O)CC31CCN(C(=O)Nc2ccc(F)c(F)c2)CC1 [Compound 58, (R)-2′-acetyl-N-(3,4-difluorophenyl)-1′-(hydroxymethyl)-7′-methoxy-1′,2′,3′,9′-tetrahydrospiro[piperidine-4,4′-pyrido[3,4-b]indole]-1-carboxamide]
1.64 µM	COc1ccc(CN2CC3(C2)CN(C(=O)CN(C)C)[C@H](CO)c2[nH]c4cc(OC)ccc4c23)cc1 [Compound 97, (S)-2-(dimethylamino)-1-(1′-(hydroxymethyl)-7′-methoxy-1-(4-methoxybenzyl)spiro[azetidine-3,4′-pyrido[3,4-b]indol]-2′(1′H,3′H,9′H)-yl)ethanone]
0.468 µM	COc1ccc2c3c([nH]c2c1)[C@H](CCO)N(C(C)=O)CC31CCN(C(=O)Nc2ccccc2F)CC1 [Compound 73, (S)-2′-acetyl-N-(2-fluorophenyl)-1′-(2-hydroxyethyl)-7′-methoxy-1′,2′,3′,9′-tetrahydrospiro [piperidine-4,4′-pyrido[3,4-b]indole]-1-carboxamide]
1.47 µM	CCC(=O)N1CCC2(CC1)CN(S(=O)(=O)c1ccccc1)[C@@H](CO)c1[nH]c3cc(OC)ccc3c12 [Compound 116, (R)-1-(1′-(hydroxymethyl)-7′-methoxy-2′-(phenylsulfonyl)-1′,2′,3′,9′-tetrahydrospiro [piperidine-4,4′-pyrido[3,4-b]indol]-1-yl) propan-1-one]
